According to patent US8114991B2, “Amino-1,3,5-triazines N-substituted with chiral bicyclic radicals, process for their preparation, compositions thereof, and their use as herbicides and plant growth regulators” (Bayer Cropscience AG, priority 2003, dated 2012):

How the values were obtained:
[1] = test system: harmful plants such as Stellaria media, Lolium multiforum, Amaranthus retroflexus, Sinapis alba, Avena sativa and Setaria viridis; assay: Pre-emergence effect on weeds (greenhouse pot test); format: in vivo; conditions: application rate of 1 kg or less of active ingredient per hectare; scored after 3 to 4 weeks by comparison with untreated controls
Description: Seeds or rhizome pieces of monocotyledonous and dicotyledonous weed plants were placed in sandy loam in plastic pots and covered with soil. The compounds according to the invention, which were formulated in the form of wettable powders or emulsion concentrates, were then applied to the surface of the soil cover as aqueous suspension or emulsion at various dosages with an application rate of 600 to 800 l of water per ha (converted).
After the treatment, the pots were placed into a greenhouse and kept under good growth conditions for the weeds. The plant or emergence damage was scored visually after the test plants have emerged after an experimental time of 3 to 4 weeks by comparison with untreated controls.

[2] = test system: harmful plants such as Sinapis alba, Echinochloa crus-galli, Lolium multiflorum, Stellaria media, Cyperus iria, Amaranthus retroflexus, Setaria viridis, Avena …; assay: Post-emergence effect on weeds (greenhouse pot test); format: in vivo; conditions: application rate of 2 kg or less of active ingredient per hectare; treated in the three-leaf stage; scored after approx. 3 to 4 weeks by comparison with untreated controls

SMILES	pre-emergence control of harmful plants (plant or emergence damage scored visually) [1]	herbicidal post-emergence activity against harmful plants (scored visually) [2]
Cc1ccc2c(c1)C(Nc1nc(N)nc(C(F)C#N)n1)C(C)C2 (mixture of isomers) [Compound 7.243]	very good pre-emergence control	very good herbicidal post-emergence activity
CCC(F)c1nc(N)nc(NC2c3ccccc3CC2C)n1 (mixture of isomers) [Compound 9.36]	very good pre-emergence control	very good herbicidal post-emergence activity
CC(F)c1nc(N)nc(NC2CCc3ccccc32)n1 (mixture of isomers) [Compound 10.1]	very good pre-emergence control	very good herbicidal post-emergence activity
CCC(F)c1nc(N)nc(N[C@@H]2CCc3ccc(F)cc32)n1 (mixture of isomers) [Compound 10.38]	very good pre-emergence control	very good herbicidal post-emergence activity
CCCC(F)c1nc(N)nc(NC2CCOc3c(C)cc(C)cc32)n1 (mixture of isomers) [Compound 10.67]	very good pre-emergence control	very good herbicidal post-emergence activity
CCC(F)c1nc(N)nc(NC2CCCc3c(C)cc(C)cc32)n1 (mixture of isomers) [Compound 10.68]	very good pre-emergence control	very good herbicidal post-emergence activity
C[C@@H](F)c1nc(N)nc(N[C@@H]2CCc3ccccc32)n1 [Compound 1.1]	very good pre-emergence control	very good herbicidal post-emergence activity
Cc1ccc2c(c1)[C@H](Nc1nc(N)nc([C@@H](C)F)n1)CC2 [Compound 1.2]	very good pre-emergence control	very good herbicidal post-emergence activity
C[C@@H](F)c1nc(N)nc(N[C@@H]2CCc3ccc(F)cc32)n1 [Compound 1.3]	very good pre-emergence control	very good herbicidal post-emergence activity
Cc1cc2c(cc1C)[C@H](Nc1nc(N)nc([C@@H](C)F)n1)CC2 [Compound 1.7]	very good pre-emergence control	very good herbicidal post-emergence activity
C[C@@H](F)c1nc(N)nc(N[C@@H]2CCCc3ccccc32)n1 [Compound 1.11]	very good pre-emergence control	very good herbicidal post-emergence activity
Cc1ccc2c(c1)[C@H](Nc1nc(N)nc([C@@H](C)F)n1)CCC2 [Compound 1.12]	very good pre-emergence control	very good herbicidal post-emergence activity
Cc1cc(C)c2c(c1)[C@H](Nc1nc(N)nc([C@@H](C)F)n1)CCC2 [Compound 1.15]	very good pre-emergence control	very good herbicidal post-emergence activity
Cc1ccc2c(c1)[C@H](Nc1nc(N)nc([C@@H](C)F)n1)CCO2 [Compound 1.21]	very good pre-emergence control	very good herbicidal post-emergence activity
C[C@@H](Cl)c1nc(N)nc(N[C@@H]2CCc3ccccc32)n1 [Compound 1.24]	very good pre-emergence control	very good herbicidal post-emergence activity
C[C@@H](Cl)c1nc(N)nc(N[C@@H]2CCCc3ccccc32)n1 [Compound 1.28]	very good pre-emergence control	very good herbicidal post-emergence activity
C[C@@H](Cl)c1nc(N)nc(N[C@@H]2CCOc3ccccc32)n1 [Compound 1.31]	very good pre-emergence control	very good herbicidal post-emergence activity
Cc1ccc2c(c1C)OCC[C@H]2Nc1nc(N)nc([C@@H](C)F)n1 [Compound 1.66]	very good pre-emergence control	very good herbicidal post-emergence activity

SMILES	pre-emergence control of harmful plants (plant or emergence damage scored visually) [1]	herbicidal post-emergence activity against harmful plants (scored visually) [2]
C[C@@H](F)c1nc(N)nc(N[C@@H]2CCOc3c(F)cccc32)n1 [Compound 1.67]	very good pre-emergence control	very good herbicidal post-emergence activity
CCc1ccc2c(c1)[C@H](Nc1nc(N)nc([C@@H](C)F)n1)CC2 [Compound 1.68]	very good pre-emergence control	very good herbicidal post-emergence activity
COc1ccc2c(c1)[C@H](Nc1nc(N)nc([C@@H](C)F)n1)CC2 [Compound 1.69]	very good pre-emergence control	very good herbicidal post-emergence activity
Cc1ccc2c(c1)[C@H](Nc1nc(N)nc([C@@H](C)F)n1)[C@@H](C)C2 [Compound 2.2]	very good pre-emergence control	very good herbicidal post-emergence activity
C[C@@H](F)c1nc(N)nc(N[C@H]2c3cc(Cl)ccc3C[C@@H]2C)n1 [Compound 2.4]	very good pre-emergence control	very good herbicidal post-emergence activity
C[C@@H](F)c1nc(N)nc(N[C@H]2c3ccccc3CC[C@@H]2C)n1 [Compound 2.11]	very good pre-emergence control	very good herbicidal post-emergence activity
Cc1ccc2c(c1)[C@H](Nc1nc(N)nc([C@@H](C)Cl)n1)[C@@H](C)C2 [Compound 2.25]	very good pre-emergence control	very good herbicidal post-emergence activity
Cc1ccc2c(c1)[C@H](Nc1nc(N)nc([C@@H](C)Cl)n1)[C@@H](C)CC2 [Compound 2.28]	very good pre-emergence control	very good herbicidal post-emergence activity
C[C@H](F)c1nc(N)nc(N[C@@H]2CCc3ccccc32)n1 [Compound 3.1]	very good pre-emergence control	very good herbicidal post-emergence activity
Cc1ccc2c(c1)[C@H](Nc1nc(N)nc([C@H](C)F)n1)CC2 [Compound 3.2]	very good pre-emergence control	very good herbicidal post-emergence activity
Cc1cc2c(cc1C)[C@H](Nc1nc(N)nc([C@H](C)F)n1)CC2 [Compound 3.7]	very good pre-emergence control	very good herbicidal post-emergence activity
C[C@H](F)c1nc(N)nc(N[C@@H]2CCCc3ccccc32)n1 [Compound 3.11]	very good pre-emergence control	very good herbicidal post-emergence activity
Cc1cc(C)c2c(c1)[C@H](Nc1nc(N)nc([C@H](C)F)n1)CCC2 [Compound 3.15]	very good pre-emergence control	very good herbicidal post-emergence activity
C[C@H](F)c1nc(N)nc(N[C@@H]2CCOc3ccccc32)n1 [Compound 3.20]	very good pre-emergence control	very good herbicidal post-emergence activity
C[C@H](Cl)c1nc(N)nc(N[C@@H]2CCc3ccccc32)n1 [Compound 3.24]	very good pre-emergence control	very good herbicidal post-emergence activity
C[C@H](F)c1nc(N)nc(N[C@H]2c3ccccc3C[C@@H]2C)n1 [Compound 4.1]	very good pre-emergence control	very good herbicidal post-emergence activity
Cc1ccc2c(c1)CC(C)C2Nc1nc(N)nc(C(C)F)n1 (stereo not shown) [Compound 4.2]	very good pre-emergence control	very good herbicidal post-emergence activity
